Measurements from PubChem BioAssay AID328 (DTP/NCI, 2004).
Values joined by “and” are separate entries in the source; they are usually repeats but may differ in a detail not shown here. Equal values may be shown once. Inconclusive results and toxic doses are left out.

Test system: BDF1 mice, P388 leukemia ip, median survival T/C
Assay: NCI In Vivo Anticancer Drug Screen. Data for tumor model P388 Leukemia (intraperitoneal) in B6D2F1 (BDF1) mice
Conditions: endpoint: median survival time, higher = longer survival
Summary of the method: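 Each value expresses how treatment altered survival: treated-mouse outcome over vehicle-mouse outcome, both groups bearing the transplanted tumour.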

[1] = dose: 200.0 mg/kg/injection, schedule: Q01DX009 (ip), vehicle: saline with Tween-80
[2] = dose: 100.0 mg/kg/injection, schedule: Q01DX001 (ip), vehicle: saline
[3] = dose: 50.0 mg/kg/injection, schedule: Q01DX009 (ip), vehicle: saline with Tween-80
[4] = dose: 100.0 mg/kg/injection, schedule: Q01DX009 (ip), vehicle: saline with Tween-80
[5] = dose: 25.0 mg/kg/injection, schedule: Q04DX003 (ip), vehicle: saline
[6] = dose: 6.25 mg/kg/injection, schedule: Q01DX009 (ip), vehicle: saline with Tween-80
[7] = dose: 25.0 mg/kg/injection, schedule: Q01DX009 (ip), vehicle: saline with Tween-80
[8] = dose: 50.0 mg/kg/injection, schedule: Q04DX003 (ip), vehicle: saline with Tween-80
[9] = dose: 400.0 mg/kg/injection, schedule: Q01DX009 (ip), vehicle: saline with Tween-80
[10] = dose: 12.5 mg/kg/injection, schedule: Q01DX009 (ip), vehicle: saline with Tween-80
[11] = dose: 100.0 mg/kg/injection, schedule: Q04DX003 (ip), vehicle: saline with Tween-80
[12] = dose: 200.0 mg/kg/injection, schedule: Q04DX003 (ip), vehicle: saline with Tween-80
[13] = dose: 400.0 mg/kg/injection, schedule: Q04DX003 (ip), vehicle: saline with Tween-80

With Nc1nc(=S)c2ncn(C3OC(COC(=O)c4ccc(Cl)cc4)C(OC(=O)c4ccc(Cl)cc4)C3OC(=O)c3ccc(Cl)cc3)c2[nH]1 (stereo not drawn) the T/C (dose: 132.0 mg/kg/injection, schedule: Q04DX003 (ip), vehicle: saline with Tween-80) was 118 % of control, the T/C [1] was 100 % of control and the T/C (dose: 300.0 mg/kg/injection, schedule: Q04DX003 (ip), vehicle: saline with Tween-80) was 122 % of control.

In the case of FC(F)(F)C(Cl)Br (stereo not drawn), the T/C [2] is reported as 90 % of control, the T/C (dose: 150.0 mg/kg/injection, schedule: Q04DX003 (ip), vehicle: saline) is reported as 86 % of control and the T/C (dose: 200.0 mg/kg/injection, schedule: Q01DX001 (ip), vehicle: saline) is reported as 90 % of control. The T/C (dose: 225.0 mg/kg/injection, schedule: Q04DX003 (ip), vehicle: saline) was 100 % of control, the T/C (dose: 335.0 mg/kg/injection, schedule: Q04DX003 (ip), vehicle: saline) was 86 % of control and the T/C (dose: 400.0 mg/kg/injection, schedule: Q01DX001 (ip), vehicle: saline) was 100 % of control.

In the case of COC(=O)C1=C(C)NC(C)=C(C(=O)OC)C1C(C)Cl (stereo not drawn), the T/C [3] is reported as 118 % of control and the T/C [4] is reported as 109 % of control.

For FC(F)(F)c1nc2nc(Cl)c(Cl)nc2s1, the T/C (dose: 0.78 mg/kg/injection, schedule: Q04DX003 (ip), vehicle: other) was 104 % of control, the T/C (dose: 1.56 mg/kg/injection, schedule: Q01DX009 (ip), vehicle: other) was 99 % of control and the T/C (dose: 1.56 mg/kg/injection, schedule: Q04DX003 (ip), vehicle: other) was 117 % of control. For the same molecule, the T/C (dose: 3.12 mg/kg/injection, schedule: Q01DX009 (ip), vehicle: other) was 90 % of control, the T/C (dose: 3.12 mg/kg/injection, schedule: Q04DX003 (ip), vehicle: other) was 98 % of control and the T/C (dose: 6.25 mg/kg/injection, schedule: Q01DX009 (ip), vehicle: other) was 90 % of control. The T/C (dose: 6.25 mg/kg/injection, schedule: Q04DX003 (ip), vehicle: other) was 121 % of control, the T/C (dose: 12.5 mg/kg/injection, schedule: Q01DX009 (ip), vehicle: other) was 99 % of control and the T/C (dose: 12.5 mg/kg/injection, schedule: Q04DX003 (ip), vehicle: other) was 111 % of control.

In the case of CC(C)NC(=O)C12CC3CC(CC(C3)C1)C2, the T/C [3] is reported as 92 % of control, the T/C [4] is reported as 87 % of control and the T/C [1] is reported as 100 % of control.

COc1cccc(N=C(N)N=C(N)N)c1 was tested, and the T/C [5] was 95 % of control, the T/C (dose: 50.0 mg/kg/injection, schedule: Q01DX001 (ip), vehicle: saline) was 100 % of control and the T/C (dose: 50.0 mg/kg/injection, schedule: Q04DX003 (ip), vehicle: saline) was 91 % of control. The T/C [2] was 100 % of control and the T/C (dose: 100.0 mg/kg/injection, schedule: Q04DX003 (ip), vehicle: saline) was 95 % of control.

With Nc1ncc(C(=O)O)c(N)n1 the T/C (dose: 0.75 mg/kg/injection, schedule: Q01DX009 (ip), vehicle: saline with Tween-80) was 87 % of control, the T/C (dose: 1.5 mg/kg/injection, schedule: Q01DX009 (ip), vehicle: saline with Tween-80) was 104 % of control and the T/C (dose: 3.0 mg/kg/injection, schedule: Q01DX009 (ip), vehicle: saline with Tween-80) was 91 % of control. The T/C [6] was 88 % of control, the T/C (dose: 12.5 mg/kg/injection, schedule: Q04DX003 (ip), vehicle: saline with Tween-80) was 100 % of control and the T/C [7] was 111 % of control. For the same molecule, the T/C (dose: 25.0 mg/kg/injection, schedule: Q04DX003 (ip), vehicle: saline with Tween-80) was 100 % of control and the T/C [8] was 100 % of control.

With c1cn[nH]c1 the T/C (dose: 4.0 mg/kg/injection, schedule: Q01DX010 (ip), vehicle: water) was 100 % of control and the T/C (dose: 8.0 mg/kg/injection, schedule: Q01DX010 (ip), vehicle: water) was 90 % of control.

With CCCC1CC[N-]CC1.CCCC1CC[N-]CC1.[Cl][Pt+2]([Cl])([Cl])[Cl] the T/C [5] was 122 % of control, the T/C (dose: 33.0 mg/kg/injection, schedule: Q04DX003 (ip), vehicle: saline with Tween-80) was 150 % of control and the T/C (dose: 37.5 mg/kg/injection, schedule: Q04DX003 (ip), vehicle: saline with Tween-80) was 118 % of control. The T/C [3] was 110 % of control and the T/C [8] was 160 % of control.

For CC(=O)OCCC(CCOC(C)=O)=C1N=C(c2ccccc2)OC1=O, the T/C [4] was 120 % of control, the T/C (dose: 300.0 mg/kg/injection, schedule: Q01DX009 (ip), vehicle: saline with Tween-80) was 118 % of control and the T/C [9] was 116 % of control.

For CSc1c(C)[nH]c2ccc([N+](=O)[O-])cc12, the T/C (dose: 25.0 mg/kg/injection, schedule: Q01DX001 (ip), vehicle: saline with Tween-80) was 95 % of control, the T/C (dose: 50.0 mg/kg/injection, schedule: Q01DX001 (ip), vehicle: saline with Tween-80) was 111 % of control and the T/C (dose: 100.0 mg/kg/injection, schedule: Q01DX001 (ip), vehicle: saline with Tween-80) was 100 % of control.

For O=Nc1ccc(O)c2ncccc12, the T/C (dose: 50.0 mg/kg/injection, schedule: Q01DX001 (ip), vehicle: Klucel (hydroxypropylcellulose) (HPC)) was 118 % of control.

O=C1OC(Cc2ccccc2)(c2ccccc2)c2ccccc21 (stereo not drawn) was tested, and the T/C [3] was 90 % of control and the T/C [4] was 90 % of control.

For N#CCC(C#N)N1CCOCC1 (stereo not drawn), the T/C [6] was 111 % of control, the T/C [10] was 96 % of control and the T/C [7] was 88 % of control. The T/C [8] was 104 % of control and the T/C [11] was 108 % of control.

In the case of CSc1ncc2ncn(C3OC(CO)C(O)C3O)c2n1 (stereo not drawn), the T/C (dose: 100.0 mg/kg/injection, schedule: Q01DX001 (ip), vehicle: Klucel (hydroxypropylcellulose) (HPC)) is reported as 86 % of control, the T/C (dose: 100.0 mg/kg/injection, schedule: Q01DX009 (ip), vehicle: Klucel (hydroxypropylcellulose) (HPC)) is reported as 110 % of control and the T/C [4] is reported as 86 % of control. The T/C (dose: 100.0 mg/kg/injection, schedule: Q04DX003 (ip), vehicle: Klucel (hydroxypropylcellulose) (HPC)) was 95 % of control, the T/C [11] was 95 % of control and the T/C (dose: 200.0 mg/kg/injection, schedule: Q01DX001 (ip), vehicle: Klucel (hydroxypropylcellulose) (HPC)) was 100 % of control. For the same molecule, the T/C (dose: 200.0 mg/kg/injection, schedule: Q01DX009 (ip), vehicle: Klucel (hydroxypropylcellulose) (HPC)) was 105 % of control, the T/C [1] was 95 % of control and the T/C (dose: 200.0 mg/kg/injection, schedule: Q04DX003 (ip), vehicle: Klucel (hydroxypropylcellulose) (HPC)) was 100 % of control. The T/C [12] was 95 % of control, the T/C (dose: 400.0 mg/kg/injection, schedule: Q01DX001 (ip), vehicle: Klucel (hydroxypropylcellulose) (HPC)) was 109 % of control and the T/C (dose: 400.0 mg/kg/injection, schedule: Q01DX009 (ip), vehicle: Klucel (hydroxypropylcellulose) (HPC)) was 105 % of control. The T/C [9] was 86 % of control, the T/C (dose: 400.0 mg/kg/injection, schedule: Q04DX003 (ip), vehicle: Klucel (hydroxypropylcellulose) (HPC)) was 100 % of control and the T/C [13] was 100 % of control.

COC(=O)/C=C/CBr was tested, and the T/C (dose: 2.5 mg/kg/injection, schedule: Q01DX010 (ip), vehicle: saline) was 110 % of control, the T/C (dose: 5.0 mg/kg/injection, schedule: Q01DX010 (ip), vehicle: saline) was 110 % of control and the T/C (dose: 10.0 mg/kg/injection, schedule: Q01DX010 (ip), vehicle: saline) was 110 % of control. For the same molecule, the T/C (dose: 20.0 mg/kg/injection, schedule: Q01DX010 (ip), vehicle: saline) was 115 % of control.

CCCCCC#CC1OC1(C)C (stereo not drawn) was tested, and the T/C [10] was 97 % of control and 100 % of control, the T/C [7] was 101 % of control and 103 % of control and the T/C [3] was 108 % of control and 116 % of control. For the same molecule, the T/C [4] was 108 % of control and 117 % of control and 121 % of control.

For COc1ccccc1OC(=O)Nc1ccccc1F, the T/C [11] was 90 % of control, the T/C [12] was 90 % of control and the T/C [13] was 100 % of control.

With COc1cc2c(cc1OC)C(C#N)N(C(=O)c1ccccc1)C=C2 (stereo not drawn) the T/C (dose: 25.0 mg/kg/injection, schedule: Q04DX003 (ip), vehicle: water) was 114 % of control, the T/C (dose: 50.0 mg/kg/injection, schedule: Q04DX003 (ip), vehicle: water) was 99 % of control and the T/C (dose: 100.0 mg/kg/injection, schedule: Q04DX003 (ip), vehicle: water) was 94 % of control. For the same molecule, the T/C (dose: 200.0 mg/kg/injection, schedule: Q04DX003 (ip), vehicle: water) was 94 % of control and the T/C (dose: 400.0 mg/kg/injection, schedule: Q04DX003 (ip), vehicle: water) was 112 % of control.
